Assay [1] concerns Puccinia triticina; Synonym: Puccinia recondite f. Sp. Tritici. As to the kind of experiment: Wheat Brown Rust (PUCCRT) disease control. The settings on record: for pest or weed control at 100 ppm / pest or weed control at 121.5 g/ha: Puccinia triticina, topical. In kind it is in vivo. The essentials: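 Brown rust on first-leaf Yuma wheat: spore inoculation before or after spray application (acetone/Triton X-100 solution, or EC with Trycol in track spray), overnight 100% RH at 22 °C, disease developed at 24 °C. Severity scored 0–100% and converted to percent control against untreated.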

For assay [2], the system named is Mycosphaerella graminicola; Anamorph: Septoria tritici. Nature of the assay: Leaf Blotch of Wheat (SEPTTR) disease control. The settings on record: for pest or weed control at 100 ppm / pest or weed control at 121.5 g/ha: Zymoseptoria tritici. The format is in vivo. The essentials:
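Wheat seedlings (Yuma, first leaf emerged) sprayed to run-off with compound in acetone/water with 110 ppm Triton X-100, or track-sprayed as EC with 0.1% Trycol 5941. Septoria tritici spores inoculated before or after treatment. Dew chambers, then 20 °C greenhouse. Percent disease control derived from severity (0–100%) relative to untreated plants.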

[3] abbreviates: 24 h, 1 Day Protectant, rate 100 ppm, read-out: PUCCRT 1 DP disease control.
[4] abbreviates: 24 h, 1 Day Protectant, rate 121.5 g/H, read-out: PUCCRT 1 DP disease control.
Where [5] appears, read: 72 h, 3 Day Curative, rate 100 ppm, read-out: PUCCRT 3 DC disease control.
Where [6] appears, read: 72 h, 3 Day Curative, rate 121.5 g/H, read-out: PUCCRT 3 DC disease control.
[7] abbreviates: 24 h, 1 Day Protectant, rate 100 ppm, read-out: SEPTTR 1 DP disease control.
Where [8] appears, read: 24 h, 1 Day Protectant, rate 121.5 g/H, read-out: SEPTTR 1 DP disease control.
Where [9] appears, read: 72 h, 3 Day Curative, rate 100 ppm, read-out: SEPTTR 3 DC disease control.
[10] abbreviates: 72 h, 3 Day Curative, rate 121.5 g/H, read-out: SEPTTR 3 DC disease control.

Read-outs that look alike come from different tables or passages of the source.

`COc1ccnc(C(=O)N[C@H]2CCC[C@H](Cc3ccc(F)cc3)[C@@H](OCC(F)F)[C@H](C)OC2=O)c1OCOC(C)=O` [Compound F103]: the pest or weed control at 100 ppm in assay [1] (setting [3]), in assay [1] (setting [5]), in assay [2] (setting [7]) and in assay [2] (setting [9]) was 80 to 100% throughout. Besides, the pest or weed control at 121.5 g/ha in assay [1] (setting [4]), in assay [1] (setting [6]), in assay [2] (setting [8]) and in assay [2] (setting [10]) was 80 to 100% in each case.

With `COc1ccnc(C(=O)N[C@H]2CCC[C@H](CCOc3ccccc3)[C@@H](OCC3CC3)[C@H](C)OC2=O)c1OC(C)=O` [Compound F84], the pest or weed control at 100 ppm in assay [1] (setting [3]), in assay [1] (setting [5]), in assay [2] (setting [7]) and in assay [2] (setting [9]) was 80 to 100% in each case. Besides, the pest or weed control at 121.5 g/ha in assay [1] (setting [4]) was 80 to 100%; in assay [1] (setting [6]) it was 80 to 100%; in assay [2] (setting [8]), 0 to 80%.

On to `COc1ccnc(C(=O)N[C@H]2CCC[C@H](CC3CCCC3)[C@@H](Oc3ccccc3)[C@H](C)OC2=O)c1OC(C)=O` [Compound F71], for which the pest or weed control at 100 ppm in assay [1] (setting [3]), in assay [1] (setting [5]), in assay [2] (setting [7]) and in assay [2] (setting [9]) was 80 to 100% throughout. The pest or weed control at 121.5 g/ha in assay [1] (setting [4]) fell in the range of 80 to 100%; in assay [1] (setting [6]) it was 0 to 80%; in assay [2] (setting [8]), 80 to 100%; in assay [2] (setting [10]) it was 80 to 100%.

On to `CCOCC(=O)OCOc1c(OC)ccnc1C(=O)N[C@H]1CCC[C@H](CC2CCCC2)[C@@H](Oc2ccccc2)[C@H](C)OC1=O` [Compound F176], for which the pest or weed control at 100 ppm in assay [1] (setting [3]), in assay [1] (setting [5]), in assay [2] (setting [7]) and in assay [2] (setting [9]) was 80 to 100% throughout. The pest or weed control at 121.5 g/ha lay within 80 to 100% in assay [1] (setting [4]), 0 to 80% in assay [1] (setting [6]), 80 to 100% in assay [2] (setting [8]) and 80 to 100% in assay [2] (setting [10]).

For the molecule `COc1ccc(C[C@H]2CCC[C@H](NC(=O)c3nccc(OC)c3O)C(=O)O[C@@H](C)[C@@H]2OCC(C)C)cc1` [Compound F32], the pest or weed control at 100 ppm was 80 to 100% in assay [1] (setting [3]), 0 to 80% in assay [1] (setting [5]), 80 to 100% in assay [2] (setting [7]) and 80 to 100% in assay [2] (setting [9]).

As for `COc1ccnc(C(=O)N[C@H]2CCC[C@H](CCC(C)C)[C@@H](OCCCC(F)(F)F)[C@H](C)OC2=O)c1O` [Compound F5], the pest or weed control at 100 ppm in assay [1] (setting [3]) fell in the range of 80 to 100%; in assay [1] (setting [5]), 0 to 80%; in assay [2] (setting [7]) it was 80 to 100%; in assay [2] (setting [9]), 80 to 100%.

In the case of `COCCC(=O)Oc1c(OC)ccnc1C(=O)N[C@H]1CCC[C@H](CC2CCCC2)[C@@H](OCC2CC2)[C@H](C)OC1=O` [Compound F194], the pest or weed control at 100 ppm is 80 to 100% in assay [1] (24 h, Wheat Brown Rust, 1 Day Protectant, rate 100 ppm (high volume application), read-out: Disease control PUCCRT 1 DP); 80 to 100% in assay [1] (72 h, Wheat Brown Rust, 3 Day Curative, rate 100 ppm (high volume application), read-out: Disease control PUCCRT 3 DC); 80 to 100% in assay [2] (24 h, Wheat Leaf Blotch, 1 Day Protectant, rate 100 ppm (high volume application), read-out: Disease control SEPTTR 1 DP); 80 to 100% in assay [2] (72 h, Wheat Leaf Blotch, 3 Day Curative, rate 100 ppm (high volume application), read-out: Disease control SEPTTR 3 DC). Moreover, the pest or weed control at 121.5 g/ha in assay [1] (24 h, Wheat Brown Rust, 1 Day Protectant, rate 121.5 g/H (low volume application), read-out: Disease control PUCCRT 1 DP) was in the range of 80 to 100%; in assay [1] (72 h, Wheat Brown Rust, 3 Day Curative, rate 121.5 g/H (low volume application), read-out: Disease control PUCCRT 3 DC), 0 to 80%; in assay [2] (24 h, Wheat Leaf Blotch, 1 Day Protectant, rate 121.5 g/H (low volume application), read-out: Disease control SEPTTR 1 DP) it was 80 to 100%; in assay [2] (72 h, Wheat Leaf Blotch, 3 Day Curative, rate 121.5 g/H (low volume application), read-out: Disease control SEPTTR 3 DC) it was 80 to 100%.

Turning to `COc1ccnc(C(=O)N[C@H]2CCC[C@H](CCC(C)C)[C@@H](OCC(C)C)[C@H](C)OC2=O)c1OCOC(=O)C(C)C` [Compound F148], the pest or weed control at 100 ppm in assay [1] (setting [3]), in assay [1] (setting [5]), in assay [2] (setting [7]) and in assay [2] (setting [9]) was 80 to 100% throughout. For the same molecule, the pest or weed control at 121.5 g/ha in assay [1] (setting [4]), in assay [1] (setting [6]), in assay [2] (setting [8]) and in assay [2] (setting [10]) was 80 to 100% in each case.

In the case of `COc1ccnc(C(=O)N[C@H]2CCC[C@H](CC3CCCC3)[C@@H](OCC(C)C)[C@H](C)OC2=O)c1OC(C)=O` [Compound F75], the pest or weed control at 100 ppm in assay [1] (setting [3]), in assay [1] (setting [5]), in assay [2] (setting [7]) and in assay [2] (setting [9]) was 80 to 100% each time. Further, the pest or weed control at 121.5 g/ha in assay [1] (setting [4]) lay in the range of 80 to 100%; in assay [1] (setting [6]) it was 0 to 80%; in assay [2] (setting [8]) it was 80 to 100%; in assay [2] (setting [10]), 80 to 100%.

For the molecule `COc1ccnc(C(=O)N[C@H]2CCC[C@H](CC3CCCC3)[C@@H](OC(=O)C(C)C)[C@H](C)OC2=O)c1O` [Compound F35], the values for the pest or weed control at 100 ppm in assay [1] (setting [3]) and in assay [2] (setting [7]) were 0 to 80% and 80 to 100%, respectively.

As to `COc1ccc(C[C@H]2CCC[C@H](NC(=O)c3nccc(OC)c3OCOC(C)=O)C(=O)O[C@@H](C)[C@@H]2OCC2CC2)cc1` [Compound F116], the pest or weed control at 100 ppm in assay [1] (setting [3]), in assay [1] (setting [5]), in assay [2] (setting [7]) and in assay [2] (setting [9]) was 80 to 100% in each case. Besides, the pest or weed control at 121.5 g/ha in assay [1] (setting [4]), in assay [1] (setting [6]), in assay [2] (setting [8]) and in assay [2] (setting [10]) was 80 to 100% each time.

As for `COc1ccnc(C(=O)N[C@H]2CCC[C@H](CC3CCCCC3)[C@@H](OCC3CC3)[C@H](C)OC2=O)c1OCOC(C)=O` [Compound F97], the pest or weed control at 100 ppm in assay [1] (setting [3]), in assay [1] (setting [5]), in assay [2] (setting [7]) and in assay [2] (setting [9]) was 80 to 100% throughout. The pest or weed control at 121.5 g/ha in assay [1] (setting [4]), in assay [1] (setting [6]), in assay [2] (setting [8]) and in assay [2] (setting [10]) was 80 to 100% throughout.

As to `C=C[C@H]1CCC[C@H](NC(=O)c2nccc(OC)c2O)C(=O)O[C@@H](C)[C@@H]1Oc1ccccc1` [Compound F61], the pest or weed control at 100 ppm in assay [1] (setting [3]) lay within 80 to 100%; in assay [1] (setting [5]), 0 to 80%; in assay [2] (setting [7]) it was 80 to 100%.

Consider `COc1ccnc(C(=O)N[C@H]2CCC[C@H](Cc3ccco3)[C@@H](OCC(C)C)[C@H](C)OC2=O)c1O` [Compound F34], for which the pest or weed control at 100 ppm in assay [1] (setting [3]), in assay [1] (setting [5]), in assay [2] (setting [7]) and in assay [2] (setting [9]) was 80 to 100% throughout.

As to `CCOCC(=O)OCOc1c(OC)ccnc1C(=O)N[C@H]1CCC[C@H](Cc2ccc(F)cc2)[C@@H](OC(=O)C(C)C)[C@H](C)OC1=O` [Compound F171], the pest or weed control at 100 ppm in assay [1] (setting [3]), in assay [1] (setting [5]), in assay [2] (setting [7]) and in assay [2] (setting [9]) was 80 to 100% in each case. Also, the pest or weed control at 121.5 g/ha in assay [1] (setting [4]) is 80 to 100%; in assay [1] (setting [6]) it was 0 to 80%; in assay [2] (setting [8]), 80 to 100%; in assay [2] (setting [10]), 80 to 100%.

Consider `COc1ccnc(C(=O)N[C@H]2CCC[C@H](Cc3ccc(C)cc3)[C@@H](OCCCC(F)(F)F)[C@H](C)OC2=O)c1O` [Compound F55], for which the “PUCCRT 1 DP disease control” value in assay [1] (1 Day Protectant, rate 100 ppm) is on record as “A (80-100)”. The “SEPTTR 1 DP disease control” value in assay [2] (1 Day Protectant, rate 100 ppm) is given as “A (80-100)”. Besides, the “SEPTTR 3 DC disease control” value in assay [2] (3 Day Curative, rate 100 ppm) is reported as “B (More than 0-Less than 80)”.

For the origin of these results see patent US9265253B2, “Use of macrocyclic picolinamides as fungicides” (DOW AGROSCIENCES LLC, priority 2013, dated 2016).
